Results on 14 compounds are retold here after patent US20240002395A1, “COMPOUNDS AND THEIR USE FOR TREATING NEUROPATHIC PAIN” (The Johns Hopkins University, priority 2020, published 2024).

Where only a bound is given, the exact number is not on record here.

One data set concerns the target T1, human MrgprX1 (Homo sapiens, UniProt Q96LB2).
T1 construct: expressed in transfected cells
The experiment in a line: MrgprX1 positive allosteric modulator (PAM) calcium FLIPR assay in HEK293 cells. Conditions: PAM activity in presence of EC20 concentration of BAM8-22; HEK293 cells stably transfected with human MrgprX1. The format is cell-based. On the procedure:
HEK293 cells stably transfected with human MrgprX1 were plated onto poly-D-lysine-coated, black-walled, 96-well plates at a seeding density of 12,000 cells/well and grown for two days. On the day of the experiment, cells were incubated with Fluo-4 AM 2 μM, pluronic acid 0.04% and Trypan Red 1% in HBSS (pH 7.4, 100 μL) for 1 h at 37° C. For each different passage of cells, a BAM8-22 dose response was first conducted and the BAM8-22 EC20 determined. Test compounds were then dissolved and serially diluted in DMSO, further diluted with Trypan Red (1%)-containing HBSS (50 μL) and added to cells (0.33% DMSO concentration by volume) to first monitor for agonist activity. After 2.5 min, BAM8-22 at 4-fold EC20 (50 μL) was added to cells (0.25% DMSO concentration by volume) and the cells imaged on the FLIPR for an additional 2 minutes to monitor the test compounds for PAM activity. Finally, data were normalized to fluorescence signals obtained from 250 nM of BAM8-22 (maximum) and BAM8-22 at its EC20 concentration (minimum). EC50 of a test compound was defined as the concentration required to provoke a response halfway between the minimum and maximum response in the presence of EC20 concentration of BAM8-22.

The nature of data set [1]: Metabolic stability in mouse liver microsomes. The format is in vitro ADME. Conditions: mouse liver microsomes 0.5 mg/mL, NADPH, compound 5 μM, 60 min. On the procedure: (§1) The metabolic stability was evaluated using mouse liver microsomes. For the cytochrome P450 (CYP)-mediated metabolism, the reaction was carried out with 100 mM potassium phosphate buffer, pH 7.4, in the presence of NADPH regenerating system (1.3 mM NADPH, 3.3 mM glucose 6-phosphate, 3.3 mM MgCl2, 0.4 U/mL glucose-6-phosphate dehydrogenase, 50 μM sodium citrate). Reactions, in triplicate, were initiated by addition of the liver microsomes to the incubation mixture (compound final concentration was 5 μM; 0.5 mg/mL microsomes). After 60 min of incubation, aliquots of the mixture were removed and the reaction quenched by addition of three times the volume of ice-cold acetonitrile spiked with the internal standard. Compound disappearance was monitored over time using a liquid chromatography and tandem mass spectrometry (LC/MS/MS) method.
In general terms: Liver microsomes are vesicles of endoplasmic reticulum, rich in cytochrome P450 enzymes.

Data set [2] in a line: Metabolic stability in human liver microsomes. The format is in vitro ADME. How it is done:
[The procedure below names another species; the source lists this species under the same test.] as §1

Data set [3] in a line: In vivo oral pharmacokinetics in mice. Conditions: 100 mg/kg oral; for Tmax: male, CD-1, mouse. On the procedure: Male CD-1 mice between 25 and 30 g were obtained from Harlan, and maintained on a 12-h light-dark cycle with ad libitum access to food and water. Three animals were used per time-point for each treatment group. Compound 7a was dissolved in 5% dimethyl acetamide, 10% Tween80, 10% Cremophor EL, 25% PEG400, and 50% water, and administered to male mice as a single oral dose by oral gavage of 100 mg/kg. The mice were sacrificed at various time points post-drug administration. Animals were euthanized with CO2, and blood samples were collected in heparinized microtubes by cardiac puncture. Brain and spinal cord tissues were dissected and immediately flash frozen (−80° C.). Blood samples were spun at 2,000×g for 15 min, plasma was removed and stored at −80° C. until LC-MS analysis. Prior to extraction, frozen samples were thawed on ice. The calibration curves were developed using plasma and brain from naïve animals as a matrix. Plasma samples (50 μL), were processed using a single liquid extraction method by addition of 300 μL of acetonitrile as with internal standard (losartan: 0.5 μM), followed by vortex mixing for 30 sec and then centrifugation at 10,000×g for 10 min at 4° C. Fifty microliter of the supernatant is diluted with 50 μL of water and transferred to 250 μL polypropylene autosampler vials sealed with a Teflon cap. For brain and spinal cord tissue analysis, samples were weighed in the range of (80-100 mg) to which 2-volumes of acetonitrile as with internal standard (losartan: 0.5 μM) was added and homogenized for extraction of the analyte. Samples were vortex mixed for 1 min and centrifuged as above. A 20 μL aliquot of supernatant was diluted with 20 μL of water and transferred to 250 μL polypropylene autosampler vials sealed with a Teflon cap. A volume of 3 μL was injected onto the ultra-performance liquid chromatography (UPLC) instrument for quantitative analysis by LC-MS/MS. Samples were analyzed on a Thermo Scientific Accela UPLC system coupled to Accela open autosampler at ambient temperature with an Agilent Eclipse Plus column (100×2.1 mm i.d.) packed with a 1.8 μm C18 stationary phase. The autosampler was temperature controlled and operated at 10° C. The mobile phase used for the chromatographic separation was composed of acetonitrile/water containing 0.1% formic acid and with a flow rate of 0.4 mL/min for 4.5 min using gradient elution. The column effluent was monitored using TSQ Vantage triple-quadrupole mass-spectrometric detector, equipped with an electrospray probe set in the positive ionization mode. Samples were introduced into the ionization source through a heated nebulized probe (350° C.).

Data set [4] has as its system MrgprX1 mice after sciatic CCI. The experiment in a line: Chronic constrictive injury (CCI) model, heat hypersensitivity (Hargreaves test). To be noted: 100 mg/kg oral gavage. The format is in vivo. How it is done: Compound 7a was examined for its ability to attenuate heat hypersensitivity in MrgprX1 mice after receiving sciatic CCI, according to the previously described methods (Proc Natl Acad Sci USA. 2017 Mar. 7; 114(10):E1996-E2005). Paw withdrawal latency (PWL) to noxious heat stimuli was measured with the Hargreaves test. The results are summarized in FIG. 2 (** P<0.01, *** P<0.001 vs. vehicle; ##P<0.01, ###P<0.001, ####P<0.0001 vs. pre-drug. Two-way mixed-model ANOVA with Bonferroni post hoc test. Data are expressed as mean+SD).

The conditions of data set [5]: intrathecal injection; cited from earlier work.

For orientation: EC50 means the midpoint of the concentration-response curve. Usually Cmax stands for the maximum level reached in the sampled fluid or tissue. The Tmax is the time from dosing to the highest level. As usually defined, the melting point is the temperature, or range, at which the solid turns liquid.

T1 sequence (Q96LB2 whole entry): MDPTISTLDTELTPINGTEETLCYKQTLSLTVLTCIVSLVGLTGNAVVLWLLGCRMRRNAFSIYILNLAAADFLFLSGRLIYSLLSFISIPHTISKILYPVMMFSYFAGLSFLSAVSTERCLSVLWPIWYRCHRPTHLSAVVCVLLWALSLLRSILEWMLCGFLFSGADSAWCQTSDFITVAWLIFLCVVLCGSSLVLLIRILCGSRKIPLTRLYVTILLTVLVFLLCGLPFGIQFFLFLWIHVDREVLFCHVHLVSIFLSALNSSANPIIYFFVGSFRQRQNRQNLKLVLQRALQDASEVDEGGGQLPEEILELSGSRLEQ

As to `CC(C)(C)c1sc2ncnc(Oc3ccccc3OC(F)(F)F)c2c1-c1ccc(Cl)c(Cl)c1` [Compound 7a, 6-tert-butyl-5-(3,4-dichlorophenyl)-4-(2-(trifluoromethoxy)phenoxy)thieno[2,3-d]pyrimidine], the EC50 on human MrgprX1 is 100 nM. Besides, the “% remaining after 1-h incubation, Mouse” value in data set [1] was determined as 25%. For the same compound, in data set [2], the “% remaining after 1-h incubation, Human” value is reported as >95%. In data set [3] (Brain), the AUC0-last is 2.37 ± 0.03 µM·h, the highest level (Cmax) was 0.82 ± 0.05 µM and the Tmax came out at 1.67 ± 0.33 h. Moreover, in data set [3] (Plasma), the Cmax was 39 ± 5.06 µM and the Tmax worked out at 1.67 ± 0.33 h. Besides, in data set [3] (Spinal cord), the Cmax came out at 4.6 ± 0.6 µM and the Tmax came out at 1.17 ± 0.44 h. Also, in data set [4] (1-2 hours after dosing, day 12 and day 26 post-CCI, vs pre-drug level), the “ipsilateral paw withdrawal latency (PWL) to noxious heat” value is “significantly increased from pre-drug level”. Also, the “contralateral paw withdrawal latency (PWL) to noxious heat” value in data set [4] (compared to pre-drug baseline or vehicle-treated group) is on record as “no significant changes”.

In turn, `CC(C)(C)c1sc2ncnc(Oc3c(F)cccc3OC(F)(F)F)c2c1-c1ccc(F)c(F)c1` [Compound 7al, 6-tert-butyl-5-(3,4-difluorophenyl)-4-(2-fluoro-6-(trifluoromethoxy)phenoxy)thieno[2,3-d]pyrimidine] showed a melting point of 150 °C. Further, at human MrgprX1, the EC50 worked out at 20 nM. Moreover, the “% remaining after 1-h incubation, Mouse” value in data set [1] was >95%. Besides, the “% remaining after 1-h incubation, Human” value in data set [2] was >95%.

`CC(C)(C)c1sc2ncnc(Oc3c(F)cccc3OC(F)(F)F)c2c1-c1ccc(Cl)cc1` [Compound 7ao, 6-tert-butyl-5-(4-chlorophenyl)-4-(2-fluoro-6-(trifluoromethoxy)phenoxy)thieno[2,3-d]pyrimidine]: the EC50 at human MrgprX1 is 10 nM. In addition, the “% remaining after 1-h incubation, Mouse” value in data set [1] is recorded as >95%. Also, in data set [2], the “% remaining after 1-h incubation, Human” value is recorded as >95%.

`Cc1ccccc1Oc1ncnc2sc(C)c(C)c12` [Compound 7az, 5,6-dimethyl-4-(o-tolyloxy)thieno[2,3-d]pyrimidine]: the melting point was 107 °C. Further, on human MrgprX1, the EC50 was 500 nM. For the same compound, the “% remaining after 1-h incubation, Mouse” value in data set [1] was <5%.

The compound `CC(C)(C)c1sc2ncnc(Oc3c(F)cccc3OC(F)(F)F)c2c1-c1ccc(Cl)c(Cl)c1` [Compound 7b, 6-tert-butyl-5-(3,4-dichlorophenyl)-4-(2-fluoro-6-(trifluoromethoxy)phenoxy)thieno[2,3-d]pyrimidine] yielded a melting point of 134 to 137 °C. In addition, the EC50 at human MrgprX1 was 50 nM. Besides, the “% remaining after 1-h incubation, Mouse” value in data set [1] was 74%. In addition, the “% remaining after 1-h incubation, Human” value in data set [2] is recorded as >95%.

In turn, `Cc1sc2ncnc(Oc3ccccc3F)c2c1C` [Compound 7ba, 4-(2-fluorophenoxy)-5,6-dimethylthieno[2,3-d]pyrimidine] had a melting point of 144 °C. The EC50 at human MrgprX1 was found to be 200 nM. For the same compound, in data set [1], the “% remaining after 1-h incubation, Mouse” value was <5%. Further, in data set [2], the “% remaining after 1-h incubation, Human” value is <5%.

The compound `Cc1sc2ncnc(Oc3ccccc3F)c2c1-c1ccccc1` [Compound 7bb, 4-(2-fluorophenoxy)-6-methyl-5-phenylthieno[2,3-d]pyrimidine] returned a melting point of 158 °C. Moreover, the EC50 on human MrgprX1 is 400 nM. Besides, the “% remaining after 1-h incubation, Mouse” value in data set [1] is on record as <5%. Further, the “% remaining after 1-h incubation, Human” value in data set [2] was found to be 12%.

For the compound `CC(C)(C)c1cc2c(Oc3ccccc3F)ncnc2s1` [Compound 7bc, 6-(tert-butyl)-4-(2-fluorophenoxy)thieno[2,3-d]pyrimidine], the half-maximal effective concentration (EC50) at human MrgprX1 stood at 400 nM. Moreover, the “% remaining after 1-h incubation, Mouse” value in data set [1] is listed as <5%. Besides, in data set [2], the “% remaining after 1-h incubation, Human” value is on record as 61%.

The compound `CC(C)(C)c1sc2ncnc(Oc3ccccc3F)c2c1-c1ccccc1` [Compound 7bd, 6-(tert-butyl)-4-(2-fluorophenoxy)-5-phenylthieno[2,3-d]pyrimidine] displayed a melting point of 81 to 82 °C. On human MrgprX1, the EC50 worked out at 300 nM. Further, in data set [1], the “% remaining after 1-h incubation, Mouse” value was <5%. Further, the “% remaining after 1-h incubation, Human” value in data set [2] came to 78%.

Turning to `CC(C)(C)c1sc2ncnc(Oc3c(F)cccc3F)c2c1-c1ccc(Cl)c(Cl)c1` [Compound 7n, 6-tert-butyl-5-(3,4-dichlorophenyl)-4-(2,6-difluorophenoxy)thieno[2,3-d]pyrimidine], the melting point amounted to 205 °C. In addition, the EC50 at human MrgprX1 turned out to be 20 nM. Further, the “% remaining after 1-h incubation, Mouse” value in data set [1] worked out at 36%. Moreover, in data set [2], the “% remaining after 1-h incubation, Human” value came to 93%.

Consider `CC(C)(C)c1sc2ncnc(OC3CC3)c2c1-c1ccc(Cl)c(Cl)c1` [Compound 7x, 6-tert-butyl-4-cyclopropoxy-5-(3,4-dichlorophenyl)thieno[2,3-d]pyrimidine], for which the melting point was found to be 172 °C. Also, the EC50 on human MrgprX1 was > 10000 nM.

The compound `CC(C)(C)c1sc2ncnc(OC3CCC3)c2c1-c1ccc(Cl)c(Cl)c1` [Compound 7y, 6-tert-butyl-4-cyclobutoxy-5-(3,4-dichlorophenyl)thieno[2,3-d]pyrimidine] returned a melting point of 146 °C. Besides, on human MrgprX1, the EC50 turned out to be 7000 nM.

As for `CC(C)(C)c1sc2ncnc(OC3CCCC3)c2c1-c1ccc(Cl)c(Cl)c1` [Compound 7z, 6-tert-butyl-4-(cyclopentyloxy)-5-(3,4-dichlorophenyl)thieno[2,3-d]pyrimidine], the melting point worked out at 112 °C. The EC50 on human MrgprX1 amounted to 6000 nM.

In the case of `CCOc1ccccc1NC(=O)c1ccccc1NS(=O)(=O)C1CC1` [ML382, 2-(cyclopropanesulfonamido)-N-(2-ethoxyphenyl)benzamide], the “efficacy in preclinical models of pain” value in data set [5] is “showed efficacy”.
